Each structure is given as a SMILES string.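 Where inhibition never reached the appropriate level, the endpoint shown equals the highest concentration tested. Otherwise, values were interpolated linearly from a five-concentration, 48-hour dose response in 96-well plates. Here, GI50 denotes the concentration required for 50% inhibition of growth. TGI is the concentration that stops growth completely.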

TGI and GI50 data for 14 compounds are collected here from PubChem BioAssay (NCI).

Among the test systems are U251 CNS; OVCAR-4 ovarian; 786-0 renal; MALME-3M melanoma; UO-31 renal; SF-539 CNS; HOP-62 NSCLC; HCT-15 colon.
Assay in all cases: growth of human tumour cells (NCI), 48 h

For the compound `CCCCSN1C(=O)c2ccccc2C1=S`, the TGI with U251 CNS, in the assay on OVCAR-4 ovarian, with 786-0 renal, with MALME-3M melanoma, in the assay with UO-31 renal and in the assay with SF-539 CNS was above 100 µM throughout. The TGI with HOP-62 NSCLC and in the assay with HCT-15 colon was above 100 µM each time.

In the case of `Cc1ccc(NC(=O)CC/C(CC(=O)C(C)(C)C)=N/NC(=O)C(N)=O)cc1C`, the TGI in the assay on U251 CNS, with OVCAR-4 ovarian, in the assay with 786-0 renal, in the assay on MALME-3M melanoma, in the assay on UO-31 renal and in the assay on SF-539 CNS was above 100 µM throughout. Further, the TGI with HOP-62 NSCLC and with HCT-15 colon was above 100 µM in each case.

Regarding `NC(N)=NS(=O)(=O)c1ccc(Nc2c3ccccc3nc3c(C(=O)N4CCN(CCO)CC4)cccc23)cc1`, the TGI in the assay on U251 CNS, in the assay with OVCAR-4 ovarian, in the assay on 786-0 renal, in the assay with MALME-3M melanoma, in the assay on UO-31 renal and in the assay on SF-539 CNS was above 100 µM in each case. Also, the TGI in the assay with HOP-62 NSCLC and in the assay with HCT-15 colon was above 100 µM in each case.

Consider `N#CCCN(CCC#N)C(=O)c1cccc(C(=O)N(CCC#N)CCC#N)c1`, for which the TGI in the assay with U251 CNS was above 59.4 µM; in the assay with OVCAR-4 ovarian, above 100 µM; in the assay with 786-0 renal, above 100 µM; with MALME-3M melanoma it was above 100 µM; in the assay on UO-31 renal it was above 100 µM; with SF-539 CNS it was above 55.3 µM. Also, the TGI in the assay on HOP-62 NSCLC and with HCT-15 colon was above 100 µM in each case.

Take `N#CNC(N)=NCCO`: the TGI with U251 CNS, in the assay on OVCAR-4 ovarian, in the assay on 786-0 renal, with MALME-3M melanoma, with UO-31 renal and in the assay with SF-539 CNS was above 100 µM throughout. The TGI with HOP-62 NSCLC and in the assay with HCT-15 colon was above 100 µM each time.

As to `COc1ccc(CN2C(=O)C(Cc3cc(OC)c(OC)c(C)c3OC)NC(=O)/C2=C/c2cc(OC)c(OC)c(C)c2OC)cc1` (stereo not drawn), the TGI with U251 CNS was above 100 µM; with OVCAR-4 ovarian it was 82.5 µM; in the assay on 786-0 renal, above 100 µM; in the assay with MALME-3M melanoma, 67.8 µM; in the assay on UO-31 renal, 74 µM; in the assay with SF-539 CNS, above 100 µM. The TGI with HOP-62 NSCLC was above 100 µM.

With `CC(=O)[CH-]C(=O)c1ccccc1.CC(=O)[CH-]C(=O)c1ccccc1.COc1cccc([O-])c1[O-].[Ti+4]`, the GI50 in the assay on U251 CNS is 25.7 µM; in the assay with OVCAR-4 ovarian, 54.3 µM; with 786-0 renal, 49 µM; in the assay with MALME-3M melanoma, 33.4 µM; in the assay on UO-31 renal it was above 100 µM; in the assay with SF-539 CNS, 24.4 µM. In addition, the GI50 in the assay with HOP-62 NSCLC was 71.4 µM; in the assay on HCT-15 colon, 50.2 µM. Besides, the TGI with U251 CNS is above 100 µM; in the assay on OVCAR-4 ovarian, above 100 µM; in the assay with 786-0 renal, above 100 µM; with MALME-3M melanoma, above 100 µM; with UO-31 renal, above 100 µM; in the assay on SF-539 CNS, 65.6 µM. Further, the TGI in the assay on HOP-62 NSCLC and with HCT-15 colon was above 100 µM throughout.

`[C-]#[O+].[Cl][Sn]([Cl])[Cl].[Cl][Sn]([Cl])[Cl].[Pt].c1ccc([PH+](c2ccccc2)c2ccccc2)cc1.c1ccc([PH+](c2ccccc2)c2ccccc2)cc1`: the GI50 in the assay with U251 CNS is 15.3 µM; in the assay with OVCAR-4 ovarian it was 56.1 µM; with 786-0 renal, 53.5 µM; in the assay on MALME-3M melanoma it was 60 µM; with UO-31 renal it was above 100 µM; in the assay on SF-539 CNS, 92.3 µM. The GI50 in the assay on HCT-15 colon was 49.9 µM. Besides, the TGI in the assay with U251 CNS is 42.5 µM; in the assay on OVCAR-4 ovarian, above 100 µM; with 786-0 renal it was above 100 µM; in the assay with MALME-3M melanoma it was above 100 µM; in the assay with UO-31 renal, above 100 µM; in the assay with SF-539 CNS, above 100 µM. The compound also yielded a TGI in the assay with HCT-15 colon above 100 µM.

Turning to `O=C(Cc1nc2ccccc2c(=O)n1-c1c(Cl)cccc1Cl)c1ccncc1`, the TGI was above 100 µM in the assay with U251 CNS; 80.7 µM in the assay with OVCAR-4 ovarian; 88.9 µM in the assay on 786-0 renal; 56.2 µM with MALME-3M melanoma; 55 µM in the assay on UO-31 renal; 34.5 µM in the assay on SF-539 CNS. The TGI in the assay on HOP-62 NSCLC is 47.9 µM; in the assay on HCT-15 colon, above 100 µM.

`CN(C)c1ccc2c(c1)CN1C(=O)c3ccccc3C1=N2`: the GI50 in the assay with U251 CNS, in the assay on OVCAR-4 ovarian, in the assay on 786-0 renal, in the assay on MALME-3M melanoma, in the assay with UO-31 renal and in the assay with SF-539 CNS was above 100 µM throughout. Moreover, the GI50 with HCT-15 colon was above 100 µM. The TGI in the assay on U251 CNS, in the assay with OVCAR-4 ovarian, in the assay with 786-0 renal, in the assay with MALME-3M melanoma, with UO-31 renal and in the assay with SF-539 CNS was above 100 µM in each case. Moreover, the TGI in the assay with HCT-15 colon was above 100 µM.

Consider `Cc1nc2ccccc2c(=O)n1/N=C(\N=Nc1cc(Cl)ccc1Cl)c1cccc(-c2ccco2)c1`, for which the TGI with U251 CNS, with OVCAR-4 ovarian, with 786-0 renal, with MALME-3M melanoma, in the assay with UO-31 renal and in the assay on SF-539 CNS was above 100 µM each time. Also, the TGI with HOP-62 NSCLC and in the assay on HCT-15 colon was above 100 µM throughout.

As for `Cc1ccc(C2CC(c3ccc([N+](=O)[O-])cc3)=Nc3ccccc3S2)cc1` (stereo not drawn), the TGI in the assay on OVCAR-4 ovarian was above 100 µM; with 786-0 renal, 28 µM; in the assay on MALME-3M melanoma, above 100 µM; in the assay with UO-31 renal it was above 100 µM; in the assay with SF-539 CNS, 71.9 µM; in the assay with HOP-62 NSCLC it was above 100 µM. In the assay on HCT-15 colon, the TGI stood at 46.2 µM.

As to `O=S1CSCS1` (stereo not drawn), the TGI in the assay with U251 CNS, with OVCAR-4 ovarian, in the assay on 786-0 renal, in the assay with MALME-3M melanoma, with UO-31 renal and in the assay on SF-539 CNS was above 100 µM each time. This compound also came in with a TGI in the assay with HOP-62 NSCLC above 100 µM.

Take `CC1(C)C(c2ccccc2)=NN(O)c2ccccc21`: the TGI with U251 CNS, with OVCAR-4 ovarian, in the assay with 786-0 renal, in the assay on MALME-3M melanoma, with SF-539 CNS and in the assay on HOP-62 NSCLC was above 100 µM each time. In the assay on HCT-15 colon, this compound showed a TGI above 100 µM.
